Three compounds from patent US10597369B2, “Monosulfonic phenyltetrazole compounds with applications” (HANGZHOU JENNIFER BIOTECH CO., LTD., priority 2015, dated 2020) can be followed below.

By melting point is commonly meant the temperature of the solid-liquid transition.

Counter-ions that a name gives are not always drawn.

Data set [1] is described as follows: Reagent stability assays (stored tetrazolium detection reagent tested with NADH, response at 450 nm). As to conditions: for lost activity: detection reagent after storage at 4° C. for a month, tested using 100 μM NADH in 50 mM Tris-Cl (pH 8); for changes in activity on storage: storage at −20° C. for up to a year, tested monthly in NADH titration. The data set is classed as physicochemical. How it is done: The tetrazolium detection reagent (WST-8 or EZMTT) was stored at 4 and −20° C., respectively. Once a month, the stored tetrazolium detection reagent was tested using 100 μM NADH in 50 mM Tris-Cl (pH 8) and the response was measured at 450 nm.
For the stability test, the WST-8, EZMTT detection reagents were stored at 4° C. and −20° C. up to a year. Both reagents were tested in NADH titration every month for their activities.

The compound `COc1cc([N+](=O)[O-])ccc1-[n+]1nc(-c2ccccc2S(=O)(=O)O)nn1-c1ccc([N+](=O)[O-])cc1` (as salt: sodium) [EZMTT, 2-(4-nitrophenyl)-3-(2-methoxy-4-nitrophenyl)-5 (2-sulfonic phenyl)-2H-tetrazolium monosodium salt] returned a melting point of 105 °C. In the case of `COc1cc([N+](=O)[O-])ccc1-[n+]1nc(-c2ccccc2S(=O)(=O)O)nn1-c1ccc([N+](=O)[O-])cc1` [EZMTT, 2-(4-nitrophenyl)-3-(2-methoxy-4-nitrophenyl)-5 (2-sulfonic phenyl)-2H-tetrazolium monosodium salt], in data set [1], the lost activity was 25% and the “changes in activity on storage” value is reported as “essentially no changes in activity”. For `COc1cc([N+](=O)[O-])ccc1-[n+]1nc(-c2ccc(S(=O)(=O)[O-])cc2S(=O)(=O)[O-])nn1-c1ccc([N+](=O)[O-])cc1.[Na+]` [WST-8, 2-(3-(2-methoxy-4-nitrophenyl)-2-(4-nitrophenyl)-2H-tetrazolium)benzene disulfonate sodium salt, reference compound] the same measures were 60% and “essentially no changes in activity”.
